{
  "source": "patent US12697343B2",
  "about": "“Intravenous istaroxime for the treatment of acute heart failure” (Seismic Pharmaceuticals Operations LLC, priority 2021, dated 2026)",
  "system": "patients hospitalized for acute heart failure (AHF)",
  "assay": "Clinical secondary endpoints: in-hospital worsening heart failure to day 4, readmissions/ED visits to day 30, length of stay",
  "assay_type": "in vivo, human",
  "method": "The primary efficacy endpoint was the change from baseline to 24 h after the start of the infusion in the E/e ratio assessed by tissue Doppler echocardiography. Secondary endpoints included the change from baseline to 24 h of other echocardiography parameters: LVEF, left ventricular end-systolic and end-diastolic volumes, stroke volume index, E, A, E/A ratio, and S′: changes in dyspnoea by visual analogue scale (VAS) and in NT-proBNP from baseline to 24 h: proportion of patients with hospital readmissions or emergency visits for cardiovascular reasons by day 30; proportion of patients with episodes of in-hospital worsening heart failure to day 4, and length of stay. In-hospital worsening heart failure was defined by the need to increase the dose or reinitiate intravenous therapy with diuretics and/or other inotropic agents to day 4. Safety endpoints were assessed throughout the study and included: incidence of adverse events (AEs): change in vital signs and in 12-lead electrocardiographic (ECG) parameters: incidence of clinically or haemodynamically significant episodes of supraventricular or ventricular arrhythmias detected by continuous ECG monitoring: standard laboratory parameters: renal function: cardiac troponin T (cTnT): incidence of cTnT elevations, and mortality at day 30. Elevations in cTnT were considered significant if they were >50% or >20% from baseline values, for patients with cTnT below or above the 99% upper reference limit at baseline, respectively.\nThe study was designed as a mechanistic and safety study to assess the effects of a 24 h istaroxime infusion in patients hospitalized for AHF. Based on the changes observed in the HORIZON-HF trial, we assumed that a sample size of at least 20 patients in the placebo group in each cohort with 2:1 randomization to istaroxime would provide sufficient power to assess the effect of istaroxime on the main haemodynamic parameters. Analyses were conducted using a pre-specified modified intention-to-treat (mITT) protocol, including all randomized patients in whom study drug infusion had been initiated and with at least […] available evaluation of efficacy after the baseline. Biomarker and eGFR values were analyzed using medians and inner/outer quartiles, and active treatment was compared to placebo using the Wilcoxon rank-sum test. Dyspnoea scores by VAS were analyzed using mixed model regression with treatment, center, time point, gender, baseline cTnT, presence of atrial fibrillation, treatment by time point interaction, baseline value, and baseline value by time point interaction in the model. Echocardiographic parameters were compared between treatment groups using linear regression with treatment in the model. Categorical variables were summarized as frequency and percent and compared between treatment groups using the Cochran-Mantel-Haenszel test, controlling for study site. AEs were recorded for all enrolled patients and were summarized as AEs, serious AEs (SAEs), AEs leading to discontinuation, and SAEs leading to death. All analyses were conducted using the SAS® System for Windows™, versions 9.1.3 and 9.4.",
  "note": "Structures can show the parent of a compound that is named as a salt.",
  "data": [
    {"smiles": "C[C@]12CCC(=NOCCN)C[C@@H]1C(=O)C[C@@H]1[C@@H]2CC[C@]2(C)C(=O)CC[C@@H]12", "note": "[Istaroxime, (E,Z)-3-((2-aminoethoxy)imino)androstane-6,17-dione hydrochloride]", "values": [
      {"measurement": "Length of stay, median", "setting": "0.5 μg/Kg/min", "value": 7.0, "unit": "days"},
      {"measurement": "Hospital readmission/ED visits to Day 30, count of patients", "setting": "0.5 μg/Kg/min (n = 41)", "value": 4},
      {"measurement": "Hospital readmission/ED visits to Day 30, percent of patients", "setting": "0.5 μg/Kg/min (n = 41)", "value": "(9.8%)"},
      {"measurement": "Worsening heart failure to day 4, count of patients", "setting": "0.5 μg/Kg/min (n = 41)", "value": 1},
      {"measurement": "Worsening heart failure to day 4, percent of patients", "setting": "0.5 μg/Kg/min (n = 41)", "value": "(2.4%)"},
      {"measurement": "Length of stay, median", "setting": "1.0 μg/Kg/min", "value": 7.0, "unit": "days"},
      {"measurement": "Hospital readmission/ED visits to Day 30, count of patients", "setting": "1.0 μg/Kg/min (n = 40)", "value": 4},
      {"measurement": "Hospital readmission/ED visits to Day 30, percent of patients", "setting": "1.0 μg/Kg/min (n = 40)", "value": "(10%)"},
      {"measurement": "Worsening heart failure to day 4, count of patients", "setting": "1.0 μg/Kg/min (n = 40)", "value": 3},
      {"measurement": "Worsening heart failure to day 4, percent of patients", "setting": "1.0 μg/Kg/min (n = 40)", "value": "(7.5%)"}
    ]}
  ]
}
